Test results as given in ChEMBL document CHEMBL3526083, “Prediction of relative in vivo metabolite exposure from in vitro data using two model drugs: dextromethorphan and omeprazole” (Drug Metab Dispos, 2012).

Key:
[1] = species: Homo sapiens; assay: Ratio of AUC for compound to omeprazolein human; type: ADME, organism-based; details: in vivo
[2] = tested on: Liver microsome; assay: Drug metabolism in human liver microsomes assessed as dextrorphan formation measured as plasma fraction unbound; type: ADME, cell-free
[3] = tested on: Liver microsome; assay: Drug metabolism in human liver microsomes assessed as dextrorphan formation measured as intrinsic unbound clearance; type: ADME
[4] = tested on: Liver microsome; assay: Drug metabolism in human liver microsomes assessed as dextrorphan formation measured per mg of microsomal protein; type: ADME
[5] = tested on: Liver microsome; assay: Drug metabolism in human liver microsomes assessed as dextrorphan formation measured as microsomal fraction unbound; type: ADME
[6] = tested on: Liver microsome; assay: Drug metabolism in human liver microsomes assessed as dextrorphan formation; type: ADME
[7] = tested on: Liver microsome; assay: Drug metabolism in human liver microsomes assessed as dextrorphan formation measured as intrinsic clearance; type: ADME
[8] = tested on: Hepatocyte; assay: Drug metabolism in human hepatocytes assessed as 5OH-omeprazole formation measured per 10^6 cells as intrinsic unbound clearance; type: ADME, cell-based
[9] = tested on: Liver microsome; assay: Drug metabolism in human liver metabolism assessed as omeprazole sulfone formation measured as intrinsic unbound clearance per mg of microsomal protein; type: ADME; details: microsomes
[10] = tested on: Hepatocyte; assay: Drug metabolism in human hepatocytes assessed as 5OH-omeprazole depletion measured per 10^6 cells as intrinsic unbound clearance; type: ADME, cell-based
[11] = tested on: Liver microsome; assay: Drug metabolism in human liver metabolism assessed as omeprazole sulfone formation; type: ADME, tissue-based
[12] = tested on: Liver microsome; assay: Drug metabolism in human liver metabolism assessed as 5OH-omeprazole formation measured per mg of microsomal protein; type: ADME; details: microsomes
[13] = tested on: Liver microsome; assay: Drug metabolism in human liver metabolism assessed as 5OH-omeprazole formation; type: ADME, tissue-based
[14] = tested on: Hepatocyte; assay: Drug metabolism in human hepatocytes assessed as omeprazole sulfone formation measured per 10^6 cells as intrinsic unbound clearance; type: ADME, cell-based
[15] = tested on: Liver microsome; assay: Drug metabolism in human liver metabolism assessed as omeprazole sulfone formation measured as microsomal fraction unbound per mg of microsomal protein; type: ADME; details: microsomes
[16] = tested on: Liver microsome; assay: Drug metabolism in human liver metabolism assessed as 5OH-omeprazole formation measured as intrinsic clearance per mg of microsomal protein; type: ADME; details: microsomes
[17] = tested on: Liver microsome; assay: Drug metabolism in human liver metabolism assessed as omeprazole sulfone formation measured per mg of microsomal protein; type: ADME; details: microsomes
[18] = tested on: Liver microsome; assay: Drug metabolism in human liver metabolism assessed as 5OH-omeprazole formation measured as plasma fraction unbound; type: ADME, cell-free
[19] = tested on: Liver microsome; assay: Drug metabolism in human liver metabolism assessed as omeprazole sulfone depletion measured as plasma fraction unbound; type: ADME, cell-free
[20] = tested on: Liver microsome; assay: Drug metabolism in human liver metabolism assessed as omeprazole sulfone formation measured as plasma fraction unbound; type: ADME, cell-free
[21] = tested on: Liver microsome; assay: Drug metabolism in human liver metabolism assessed as omeprazole sulfone depletion measured as microsomal fraction unbound; type: ADME; details: microsomes
[22] = tested on: Liver microsome; assay: Drug metabolism in human liver metabolism assessed as 5OH-omeprazole formation measured as intrinsic unbound clearance per mg of microsomal protein; type: ADME; details: microsomes
[23] = tested on: Liver microsome; assay: Drug metabolism in human liver metabolism assessed as omeprazole sulfone depletion measured as intrinsic unbound clearance per mg of microsomal protein; type: ADME; details: microsomes
[24] = tested on: Liver microsome; assay: Drug metabolism in human liver metabolism assessed as 5OH-omeprazole formation measured as microsomal fraction unbound; type: ADME; details: microsomes
[25] = tested on: Liver microsome; assay: Drug metabolism in human liver metabolism assessed as omeprazole sulfone depletion measured as intrinsic clearance per mg of microsomal protein; type: ADME; details: microsomes
[26] = tested on: Liver microsome; assay: Drug metabolism in human liver metabolism assessed as omeprazole sulfone formation measured as intrinsic clearance per mg of microsomal protein; type: ADME; details: microsomes
[27] = tested on: Hepatocyte; assay: Drug metabolism in human hepatocytes assessed as omeprazole sulfone depletion measured per 10^6 cells as intrinsic unbound clearance; type: ADME, cell-based

With `COc1ccc2nc(S(=O)(=O)Cc3ncc(C)c(OC)c3C)[nH]c2c1` [OMEPRAZOLE SULFONE] the “Ratio AUC” value [1] was 0.85.

In the case of `COc1ccc2[nH]c([S+]([O-])Cc3ncc(CO)c(OC)c3C)nc2c1` (stereo not drawn), the “Ratio AUC” value [1] is reported as 0.48.

Compound `COc1ccc2c(c1)[C@]13CCCC[C@@H]1[C@H](C2)N(C)CC3` [DEXTROMETHORPHAN] has a Fu [2] of 0.72, a CL free [3] of 14 µL/min/mg and a Vmax [4] of 0.066 nmol/min. The Fu [5] was 0.93, the Km [6] was 5 µM and the CLH [7] was 13 µL/min/mg.

Compound `COc1ccc2[nH]c([S+]([O-])Cc3ncc(C)c(OC)c3C)nc2c1` (stereo not drawn) [OMEPRAZOLE] has a CL free [8] of 55 uL/hr/10^6cells, a CL free [9] of 7.7 µL/min/mg and a CL free [10] of 100 uL/hr/10^6cells. It also gave a Km [11] of 11 µM, a Vmax [12] of 0.11 nmol/min/mg and a Km [13] of 16 µM. For the same compound, the CL free [14] was 3.6 uL/hr/10^6cells, the Fu [15] was 0.86 and the CLint [16] was 7.1 µL/min/mg. For the same compound, the Vmax [17] was 0.074 nmol/min/mg, the Fu [18] was 0.061 and the Fu [19] was 0.0048. It also gave a Fu [20] of 0.061, a Fu [21] of 0.92 and a CL free [22] of 8.2 µL/min/mg. For the same compound, the CL free [23] was 35 µL/min/mg, the Fu [24] was 0.86 and the CLint [25] was 32 µL/min/mg. It also gave a CLint [26] of 6.6 µL/min/mg and a CL free [27] of 48 uL/hr/10^6cells.
